Data reported in patent US8420649B2, “Pyrido[3,2-d]pyridazine-2(1H)-one compounds as p38 modulators and methods of use thereof” (Amgen Inc., priority 2008, dated 2013).
“And” between values parts separate entries of the source, which are not always exact repeats. Identical values can stand only once. Like-named read-outs stand apart in the source and are kept apart here. One block for each compound: values may come before it.

What was measured:
[1] = system: TNF-α production by LPS-activated THP1 cells; assay: Lipopolysaccharide-activated THP1 cell TNF production assay; type: cell-based; settings: Homo sapiens, THP-1, 3 hours, read-out: IC50 in the THP-1 cellular TNF production assay
Experimental: Lipopolysaccharide-activated THP1 Cell TNF Production Assay
THP1 cells were resuspended in fresh THP1 media (RPMI 1640, 10% heat-inactivated FBS, 1×PGS, 1×NEAA, plus 30 μM βME) at a concentration of 1.5×10^6 cells per mL. One hundred microliters of cells per well were plated in a polystyrene 96-well tissue culture plate. 1.5 micrograms per mL of bacterial LPS was prepared in THP1 media and transferred to the first 11 columns of a 96-well polypropylene plate. Column 12 contained only THP1 media for the LO control. Compounds were dissolved in 100% DMSO and serially diluted 3 fold in a polypropylene 96-well microtiter plate (drug plate). Columns 6 and 12 were reserved as controls (HI controls and LO controls respectively) and contained only DMSO. […] Fifty microliters of conditioned media was transferred to a 96-well MULTI-ARRAY™ 96-well small spot plate—custom coated with MAB610 containing 100 μL of 2× Read Buffer P supplemented with 0.34 nM AF210NA polyclonal Ab labeled with ruthenium (MSD-Sulfo-TAG™—NHS ester). After an overnight incubation at room temperature with shaking, the reaction was read on the Sector Imager™ 6000. […] The amount of secreted TNF-α in the presence of test compounds compared with that in the presence of DMSO vehicle alone (HI control) was calculated using the formula: % control (POC)=(cpd−average LO)/(average HI−averageLO)*100. […]

human p38α = human p38α (Homo sapiens, UniProt Q16539); assay: Purified and activated recombinant human p38α HTRF kinase assay; type: biochemical; settings: recombinant human p38α 1 nM, 50 μM ATP, read-out: p38a IC50
human p38α, sequence (Q16539 whole entry): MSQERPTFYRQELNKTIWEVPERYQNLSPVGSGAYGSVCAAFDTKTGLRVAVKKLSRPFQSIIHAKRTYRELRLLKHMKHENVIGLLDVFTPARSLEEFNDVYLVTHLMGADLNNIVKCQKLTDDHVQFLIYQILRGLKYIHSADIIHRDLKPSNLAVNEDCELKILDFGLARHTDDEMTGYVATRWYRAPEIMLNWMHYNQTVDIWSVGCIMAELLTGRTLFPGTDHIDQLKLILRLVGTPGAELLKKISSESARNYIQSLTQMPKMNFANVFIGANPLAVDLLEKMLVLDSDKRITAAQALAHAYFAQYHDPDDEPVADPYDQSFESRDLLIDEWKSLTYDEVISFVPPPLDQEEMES
Experimental: Purified and Activated Recombinant Human p38α Assay Kinase Reaction Buffer: Kinase reaction buffer for p38α HTRF assays consists of 50 mM Tris-pH 7.5, 5 mM MgCl2, 0.1 mg/mL BSA, 100 μM Na3VO4 and 0.5 mM DTT. HTRF Detection Buffer: HTRF detection buffer contains 100 mM HEPES-pH 7.5, 100 mM NaCl, 0.1% BSA, 0.05% Tween-20, and 10 mM EDTA. Serial Dilution of Compounds: Compounds were dissolved in 100% DMSO and serially diluted (3 fold, 10 point) in a polypropylene 96-well microtiter plate (drug plate). The final starting concentration of compounds in the p38α enzymatic assays was 1 μM. […] Kinase Reaction: […] See table below for actual concentrations. In the absence of substrate, the background was measured as LO control. The reaction was allowed to incubate for 1 hour at RT. Assay Reagent Concentrations: […] HTRF Detection: […] After 60 minutes incubation at room temperature, the assay plate was read in a Discovery Plate Reader. The wells were excited with coherent 320 nm light and the ratio of delayed ([…] post excitation) emissions at […] (native europium fluorescence) and 665 nm (europium fluorescence transferred to allophycocyanin-an index of substrate phosphorylation) was determined (Park et al, 1999). Data Analysis: The proportion of substrate phosphorylated in the kinase reaction in the presence of compound compared with that phosphorylated in the presence of DMSO vehicle alone (HI control) was calculated using the formula: % control (POC)=(compound-average LO)/(average HI-average LO)*100. […] The inhibition constant (Ki) of the inhibitor was estimated from the IC50 (compound concentration at the point of inflection C) using the Cheng-Prussof equation: […] All results were expressed as the mean±the standard error of the mean.

[2] = system: IL-1β, IL-6 and TNF-α production by LPS-activated PBMC; assay: Lipopolysaccharide-activated PBMC cytokine production assay; type: cell-based; settings: Homo sapiens, read-out: IC50 in the whole blood PMBC assay
Experimental: Lipopolysaccharide-Activated PBMC Cytokine Production Assay
Test compounds were evaluated in vitro for the ability to inhibit the production of IL-1β, IL-6, and TNF-α by PBMC activated with bacterial lipopolysaccharide (LPS). Fresh leukocytes were obtained from a local blood bank, and peripheral blood mononuclear cells (PBMCs) were isolated by density gradient centrifugation on Ficol-Paque Plus (Pharmacia).
Preparation of Test Compound Stock Solutions
All reagents were prepared in RPMI 1640+10% v/v human AB serum+1× Pens/Strep/Glu (assay medium). Test compounds were dissolved in 100% DMSO and serially diluted in 96-well polypropylene round bottom micro titer plates (drug plate). Serial dilutions were then diluted 1:250 into assay medium to a 4× working concentration. Compound serial dilutions were half-log, 10 point titrations with a final starting concentration of 1 μM.
Treatment of Cells with Test Compounds and Activation with Lipopolysaccharide
LPS was prepared to a 4× concentration in assay medium. 100 μl of PBMC (1×10^6 cells/ml) were plated in a 96-well polystyrene flat bottom micro titer tissue culture plate and incubated with 50 μl of 4× compound serial dilution for 1 hour at 37° C., 5% CO2 in a tissue culture incubator. 50 μl 4×LPS or control was added and the plates were incubated at 37° C., 5% CO2 in a tissue culture incubator for 18 hours. The final DMSO concentration was 0.1%. The total volume was 200 μL. The final LPS concentration was 100 ng/mL. After 18 hours culture supernatants were removed and IL-1β, IL-6, and TNF-α presence in the supernatants was quantified using MSD ECL based technology.
20 μL of culture supernatant were added to MSD plates, and incubated for one hour at room temperature. 20 μL of detection antibody diluted in antibody diluent (1 μg/mL), and 110 μL of 2× Read Buffer P was added, and incubated for one hour at RT. Electrochemiluminescence was measured using the SECTOR HTS Imager (MSD, Gaithersburg, Md.).
Compound IC50 values were calculated as follows: The proportion of cytokine production in the presence of compound compared to the cytokine production in the presence of the DMSO vehicle alone (Hi control) was calculated using the formula: Percent Control (POC)=(compound−average Lo)/(average Hi−average Lo)*100.

[3] = system: TNF-α induced IL-8 production in human whole blood; assay: Inhibition of TNF-α induced IL-8 in 50% human whole blood; type: cell-based
Experimental: Inhibition of TNF-α Induced IL-8 in 50% Human Whole Blood Test compounds were evaluated in vitro for the ability to inhibit the production of secreted IL-8 by whole blood activated with TNF-α. Fresh human whole blood was obtained from healthy, non-medicated volunteers in sodium heparin tubes. Compound Dilution—Assay Procedure […] Cytokine Measurement Cytokines are measured on antibody (Ab) sandwich ECL based 96-well detection plates. 20 ul of supernatant are added to plate and plate is sealed and shaken at RT for 1 hour. 130 ul of detection Ab cocktail is added and plates are sealed and shaken for 1 hour in the dark at RT. Plates are read on MSD Sector HTS instrument.

[4] = Homo sapiens, read-out: WB TNF/IL8 IC50, TNF-α (1 nM) induced IL-8, 50% human whole blood, 16-18 hours

Compound: Cn1c(=O)c(Nc2ccc(F)cc2F)cc2cnnc(-c3ccc(F)cc3F)c21 [Example 1, 8-(2,4-difluorophenyl)-3-(2,4-difluorophenylamino)-1-methylpyrido[3,2-d]pyridazin-2(1H)-one]
IC50 [1]: ≤ 1000 nM | IC50 (human p38α): 0.8 nM | IC50 ([2]; 18 h): ≤ 1000 nM

Compound: Cn1c(=O)c(Oc2ccc(F)cc2)cc2cnnc(-c3ccc(F)cc3F)c21 [Example 2, 8-(2,4-difluorophenyl)-3-(4-fluorophenoxy)-1-methylpyrido[3,2-d]pyridazin-2(1H)-one]
IC50 [1]: ≤ 1000 nM | IC50 (human p38α): ≤ 125 nM and 102 nM | IC50 ([2]; 18 h): ≤ 1000 nM | IC50 [3, 4]: ≤ 300 nM | IC50 ([3]; read-out: WB TNF/IL8 IC50, TNF-α (1 nM) induced IL-8, 50% human whole blood, 16-18 hours): 273 nM

Compound: Cn1c(=O)c(Nc2ccc(F)cc2F)cc2cnnc(-c3ccc(C(F)(F)F)cc3F)c21 [Example 3, 3-(2,4-difluorophenylamino)-8-(2-fluoro-4-(trifluoromethyl)phenyl)-1-methylpyrido[3,2-d]pyridazin-2(1H)-one]
IC50 (human p38α): 2.3 nM | IC50 ([2]; 18 h): ≤ 1000 nM

Compound: Cn1c(=O)c(Nc2ccc(F)cn2)cc2cnnc(-c3ccc(F)cc3F)c21 [Example 4, 8-(2,4-difluorophenyl)-3-((5-fluoro-2-pyridinyl)amino)-1-methylpyrido[2,3-d]pyridazin-2(1H)-one]
IC50 (human p38α): 327 nM | IC50 [3, 4]: > 2500 nM

Compound: CCn1c(=O)c(Nc2ccc(F)cc2F)cc2cnnc(-c3ccc(F)cc3F)c21 [Example 5, 8-(2,4-difluorophenyl)-3-((2,4-difluorophenyl)amino)-1-ethylpyrido[2,3-d]pyridazin-2(1H)-one]
IC50 (human p38α): 0.2 nM | IC50 ([2]; 18 h): ≤ 1000 nM

Compound: Cn1c(=O)c(Oc2ccc(F)cc2F)cc2cnnc(-c3ccccc3Cl)c21 [Example 6, 8-(2-chlorophenyl)-3-(2,4-difluorophenoxy)-1-methylpyrido[2,3-d]pyridazin-2(1H)-one]
IC50 (human p38α): 0.6 nM | IC50 ([2]; 18 h): ≤ 1000 nM

Compound: Cn1c(=O)c(Nc2ncc(F)cc2F)cc2cnnc(-c3ccc(F)cc3F)c21 [Example 7, 8-(2,4-difluorophenyl)-3-((3,5-difluoro-2-pyridinyl)amino)-1-methylpyrido[2,3-d]pyridazin-2(1H)-one]
IC50 (human p38α): 111 nM | IC50 [3, 4]: > 2500 nM

Compound: Cc1cc(S(C)(=O)=O)ccc1-c1nncc2cc(Nc3ccc(F)cc3F)c(=O)n(C)c12 [Example 8, 3-((2,4-difluorophenyl)amino)-1-methyl-8-(2-methyl-4-(methylsulfonyl)phenyl)pyrido[2,3-d]pyridazin-2(1H)-one]
IC50 (human p38α): 1.7 nM | IC50 ([2]; 18 h): ≤ 1000 nM

IC50 (human p38α): 11 nM
Compound: Cc1cc(S(C)(=O)=O)ccc1-c1nncc2cc(Oc3ccc(F)cc3F)c(=O)n(C)c12 [Example 9, 3-(2,4-difluorophenoxy)-1-methyl-8-(2-methyl-4-(methylsulfonyl)phenyl)pyrido[2,3-d]pyridazin-2(1H)-one]
IC50 ([2]; LPS 100 ng/mL, 18 hours): ≤ 1000 nM

IC50 (human p38α): 0.8 nM
Compound: Cn1c(=O)c(Nc2ccc(F)cc2F)cc2cnnc(-c3ccc(S(C)(=O)=O)cc3Cl)c21 [Example 10, 8-(2-chloro-4-(methylsulfonyl)phenyl)-3-((2,4-difluorophenyl)amino)-1-methylpyrido[2,3-d]pyridazin-2(1 H)-one]
IC50 ([2]; LPS 100 ng/mL, 18 hours): ≤ 1000 nM

IC50 (human p38α): 2.2 nM
Compound: Cn1c(=O)c(Nc2ccc(F)cc2)cc2cnnc(-c3ccc(F)cc3F)c21 [Example 11, 8-(2,4-difluorophenyl)-3-((4-fluorophenyl)amino)-1-methylpyrido[2,3-d]pyridazin-2(1H)-one]
IC50 ([2]; LPS 100 ng/mL, 18 hours): ≤ 1000 nM

IC50 (human p38α): 8.4 nM
Compound: Cn1c(=O)c(Oc2ccc(F)cc2F)cc2cnnc(-c3ccc(F)cc3F)c21 [Example 12, 3-(2,4-difluorophenoxy)-8-(2,4-difluorophenyl)-1-methylpyrido[2,3-d]pyridazin-2(1H)-one]
IC50 ([2]; LPS 100 ng/mL, 18 hours): ≤ 1000 nM
